Data published in patent US20130217892A1, “Use Of N-Substituted 2-Pyrrolidone-4-Carboxylic Acid Esters And Solvents” (CLARIANT FINANCE (BVI) LIMITED, priority 2010, published 2013).

Assay: Solubilities of pesticides in compounds of the formula (1)
Type: physicochemical
Description: The solubilities of various pesticides were determined in various compounds of the formula (1) at 25° C. All data are in % by weight (Table 1).

CCCCOC(=O)C1CC(=O)N(C)C1 (centres unmarked) [example 3, N-Butyl N-Methyl-2-Pyrrolidone-4-Carboxylate]
Solubility of Pendimethalin in the compound of the formula (1): 38.9 % by weight | Solubility of Tebuconazole in the compound of the formula (1): 37.0 % by weight | Solubility of Triadimefon in the compound of the formula (1): 43.0 % by weight | Solubility of Trifloxystrobin in the compound of the formula (1): 30.1 % by weight | Solubility of Trifluralin in the compound of the formula (1): 57.4 % by weight
